Consider eight compounds from patent EP4772514A1, “MACROCYCLIC COMPOUNDS, PREPARATION METHOD THEREFOR, AND USE THEREOF” (Genfleet Therapeutics (Shanghai) Inc., priority 2023, dated 2025).

As a reminder, the IC50 is the concentration that gives 50% inhibition.

Holding throughout (format): cell-based
Experiment [1] deals with p-ERK. Briefly: Cell p-ERK assay (HTRF, Advance ERK phospho-T202/Y204 kit) in NCI-H441 cells. Particulars: Homo sapiens, NCI-H441, 3 h, NCI-H441, human non-small cell lung cancer cell strain, KRAS G12V mutation; 3 h compound incubation. Summed up: (§1)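 Phospho-ERK (T202/Y204) measured by HTRF in lysates of AsPC-1 (KRAS G12D) or NCI-H441 (KRAS G12V) cells after 3 h compound exposure at 37 °C in RPMI-1640 + 10% FBS, 0.1% DMSO. Inhibition normalised to DMSO and blank wells; IC50 by four-parameter fit.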
Background: In TR-FRET formats the signal depends on donor and acceptor labels being close together.

For the next experiment, the system named is AsPC-1 cells. Put plainly: 3D cell proliferation assay (CellTiter Glo-3D) in AsPC-1 cells. The settings on record: ASPC1, 120 h; AsPC-1, human pancreatic cancer cell strain, KRAS G12D mutation; 3D culture, 2% FBS, 5 days; read-out: AsPC-1 AP IC50. The text has this:
MIA PaCa-2 cells were purchased from ATCC, Cat. No. CRL-1420; AsPC-1 cells were purchased from ATCC, Cat. No. CRL-1682; NCI-H441 cells were purchased from ATCC, Cat. No. HTB-174; NCI-H1975 cells were purchased from ATCC, Cat. No. CRL-5908; DMEM medium was purchased from Gibco, Cat. No. 11995-065; RPMI-1640 medium was purchased from Gibco, Cat. No. 11875-093; FBS was purchased from Gibco, Cat. No. 10099-141C; penicillin/streptomycin double-antibiotic solution (PS) was purchased from Gibco, Cat. No. 15140-122; Horse serum was purchased from Gibco, Cat. No. 16050130; trypsin (containing EDTA) was purchased from Gibco, Cat. No. 25200-072; DMSO was purchased from VWRAMRESCO, Cat. No. 0231-500ML; 384-well cell culture plates were purchased from Corning, Cat. No. 3830; white-bottomed, opaque 384-well assay plates were purchased from Corning, Cat. No. 3570; CellTiter Glo-3D kit was purchased from Promega, Cat. No. G9683; cell counter was purchased from CHEMOMETEC, model: NC-200; microplate reader was purchased from PerkinElmer, model: EnVision.
MIA PaCa-2, a human pancreatic cancer cell strain endogenously containing a KRAS^G12Cmutation, was cultured in a complete medium containing DMEM + 10% FBS + 2.5% Horse serum + 1% PS. AsPC-1, a human pancreatic cancer cell strain endogenously containing a KRAS^G12D mutation, was cultured in a complete medium containing RPMI-1640 + 10% FBS + 1% PS. NCI-H441 cells, a human lung cancer cell strain endogenously containing a KRAS^G12V mutation, were cultured in a complete medium containing RPMI-1640 + 10% FBS + 1% PS. NCI-H1975, a KRAS wild-type human lung cancer cell strain whose cell proliferation […], was cultured in a complete medium containing RPMI-1640 + 10% FBS + 1% PS.
The cells were digested with trypsin (containing EDTA), collected in their respective low-serum complete media containing 2% FBS (for MIA Paca-2 cell culture: DMEM + 2% FBS + 0.5% Horse serum + 1% PS), and counted. After the cell density was adjusted as required, MIA PaCa-2 cells (200 cells/well), AsPC-1 cells (800 cells/well), NCI-H441 cells (800 cells/well), or NCI-H1975 cells (400 cells/well) were seeded into a 384-well cell culture plate, with the volume of the medium in each well being 45 µL. The cell culture plate was incubated in an incubator at 37 °C with 5% CO2 overnight. A series of 3.16-fold gradient dilutions of a 1000× compound stock solution were prepared with DMSO, and then diluted 100-fold with the complete medium containing 2% FBS described above to give 10× compound stock solutions. On the day after cell seeding, 5 µL of the 10× compound stock solution was added to each cell culture well. As a result, the final concentration of the compound in the cell culture well became 1×, and the DMSO content in the well was 0.1%. In addition to the compound-treated wells described above, cell-containing DMSO control wells (with 5 µL of the complete medium containing 1% DMSO added to each well) and cell-free medium control wells (containing 50 µL of the complete medium with 2% FBS) were also set. The culture plate was incubated in an incubator at 37 °C with 5% CO2 for another 5 days, and then 30 µL of CellTiter-Glo working solution was added to each well. The mixture was well mixed, incubated for 30 min, left to stand at room temperature for 30 min, and then transferred to a white-bottomed, opaque 384-well assay plate at 40 µL/well. The chemiluminescence values (RLU) were measured using a microplate reader, and the cell proliferation inhibition rate for each well was calculated: IR(%) = (RLUDMSO - RLUcompound)/(RLUDMSO - RLUblank) × 100%, where RLUDMSO is the average RLU signal value from the DMSO control well samples, RLUblank is the average RLU signal value from the medium control well samples, and RLUcompound is the RLU signal value from the compound-treated well samples. […]
For orientation: Cellular ATP, detected with luciferase, serves as a proxy for viable cell number.

For a further experiment, the system named is NCI-H441 cells. Briefly: 3D cell proliferation assay (CellTiter Glo-3D) in NCI-H441 cells. The settings on record: Homo sapiens, NCI-H441, 120 h, NCI-H441, human lung cancer cell strain, KRAS G12V mutation; 3D culture, 2% FBS, 5 days; read-out: H441 AP IC50. The gist of the method:
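KRAS^G12V NCI-H441 and KRAS^G12D AsPC-1 cells (800 cells/well each) grown in RPMI-1640 with 2% FBS and treated the day after seeding with 3.16-fold compound dilutions (0.1% DMSO) for 5 days at 37 °C. Viability by CellTiter-Glo 3D luminescence; inhibition versus DMSO and cell-free controls, IC50 from four-parameter fit.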

Experiment [2] has as its system p-ERK. Put plainly: Cell p-ERK assay (HTRF, Advance ERK phospho-T202/Y204 kit) in AsPC-1 cells. Particulars: ASPC1; AsPC-1, human pancreatic cancer cell strain, KRAS G12D mutation; 3 h compound incubation. The gist of the method:
as §1

`CCn1nc2c(c1-c1cc(C#CCN3CCC(C#N)(CN)CC3)cnc1[C@H](C)OC)CC(C)(C)COC(=O)[C@@H]1CCCN(N1)C(=O)[C@@H](NC(=O)[C@H]1[C@H](C)[C@@H]1C)Cc1nc(cs1)/C=C/2` [Compound Z119]: the IC50 in the experiment with p-ERK [1] came to 1810 pM; in the experiment on AsPC-1 cells, 2390 pM; in the experiment on NCI-H441 cells, 1450 pM; in the experiment on p-ERK [2], 2290 pM.
On to `CCn1cc2c(c1-c1cc(C#CCN3CCCOCC3)cnc1[C@H](C)OC)CC(C)(C)COC(=O)[C@@H]1CCCN(N1)C(=O)[C@@H](NC(=O)[C@H]1[C@H](C)[C@@H]1C)Cc1nc(cs1)/C=C/2` (atropisomer, axis not shown; (Ra)) [Compound Z69, (1r,2R,3S)-N-((4^2Z,8^3S,2E,6S)-(Ra)-1^5-(5-(3-(1,4-oxazepan-4-yl)prop-1-yn-1-yl)-2-((S)-1-methoxyethyl)pyridin-3-yl)-1^1-ethyl-12,12-dimethyl-7,9-dioxo-8^1,8^2,8^3,8^4,8^5,8^6-hexahydro-1^1H-10-oxa-4(4,2)-thiazola-8(1,3)-pyridazina-1(3,4)-pyrrolacyclotridecaphan-2-en-6-yl)-2,3-dimethylcyclopropane-1-carboxamide], for which the IC50 was 900 pM with p-ERK [1], 670 pM with AsPC-1 cells, 580 pM with NCI-H441 cells and 1540 pM in the experiment on p-ERK [2].
For `CCn1cc2c(c1-c1cc(C#CCN3CCC3)cnc1[C@H](C)OC)CC(C)(C)COC(=O)[C@@H]1CCCN(N1)C(=O)[C@@H](NC(=O)[C@H]1[C@H](C)[C@@H]1C)Cc1nc(cs1)/C=C/2` (atropisomer, axis not shown; (Ra)) [Compound Z70, (1r,2R,3S)-N-((4^2Z, 8^3S,2E,6S)-(Ra)-1^5-(5-(3-(azetidin-1-yl)prop-1-yn-1-yl)-2-((S)-1-methoxyethyl)pyridin-3-yl)-1^1-ethyl-12,12-dimethyl-7,9-dioxo-8^1,8^2,8^3,8^4,8^5,8^6-hexahydro-1^1H-10-oxa-4(4,2)-thiazola-8(1,3)-pyridazina-1(3,4)-pyrrolacyclotridecaphan-2-en-6-yl)-2,3-dimethylcyclopropane-1-carboxamide], in that order: 2030 pM, 1540 pM, 1120 pM and 3600 pM.
Turning to `CCn1cc2c(c1-c1cc(C#CCN3CCC(C#N)(CN)CC3)cnc1[C@H](C)OC)CC(C)(C)COC(=O)[C@@H]1CCCN(N1)C(=O)[C@@H](NC(=O)[C@H]1[C@H](C)[C@@H]1C)Cc1nc(cs1)/C=C/2` (atropisomer, axis not shown; (Ra)) [Compound Z65], the half-inhibitory concentration (IC50) in the experiment with p-ERK [1] came out at 580 pM; in the experiment with AsPC-1 cells, 100 pM; in the experiment with NCI-H441 cells it was 170 pM; with p-ERK [2], 140 pM.
The matching figures for `CCn1c(-c2cc(C#CCN3CCS(=O)(=O)CC3)cnc2[C@H](C)OC)c2c3cc(ccc31)NC(=O)OC[C@H](NC(=O)[C@H]1[C@H](C)[C@@H]1C)C(=O)N1CCC[C@H](N1)C(=O)OCC(C)(C)C2` (atropisomer, axis not shown; (Ra)) [Compound Z36, (1r,2R,3S)-N-((7^3S,9S)-1^2-(5-(3-(1,1-dioxidothiomorpholino)prop-1-yn-1-yl)-2-((S)-1-methoxyethyl)pyridin-3-yl)-1^1-ethyl-(Ra)-3,3-dimethyl-6,8,12-trioxo-7^1,7^2,7^3,7^4,7^5,7^6-hexahydro-1^1H-5,11-dioxa-13-aza-1(3,5)-indola-7(3,1)-pyridazinaocycloundecan-9-yl)-2,3-dimethylcyclopropane-1-carboxamide]: 40400 pM, 374000 pM, 40600 pM and 230000 pM.
For `CCn1c(F)c2c(c1-c1cc(C#CCN3CCC(C#N)(CN)CC3)cnc1[C@H](C)OC)CC(C)(C)COC(=O)[C@@H]1CCCN(N1)C(=O)[C@@H](NC(=O)[C@H]1[C@H](C)[C@@H]1C)Cc1nc(cs1)/C=C/2` (atropisomer, axis not shown; (Ra)) [Compound Z145, (1r,2R,3S)-N-((4^2Z, 8^3S, 2E, 6S)-(Ra)-1^5-(5-(3-(4-(aminomethyl)-4-cyanopiperidin-1-yl)prop-1-yn-1-yl)-2-((S)-1-methoxyethy)pyridin-3-yl)-1^1-ethyl-1^2-fluoro-12,12-dimethyl-7,9-dioxo-8^1,8^2,8^3,8^4,8^5,8^6-hexahydro-1^1H-10-oxa-4(4,2)-thiazola-8(1,3)-pyridazina-1(3,4)-pyrrolacyclotridecaphan-2-en-6-yl)-2,3-dimethylcyclopropane-1-carboxamide], in that order: 290 pM, 150 pM, 200 pM and 150 pM.
For `CCn1cc2c(c1-c1cc(C#CCN3CCC(C#N)(CO)CC3)cnc1[C@H](C)OC)CC(C)(C)COC(=O)[C@@H]1CCCN(N1)C(=O)[C@@H](NC(=O)[C@H]1[C@H](C)[C@@H]1C)Cc1nc(cs1)/C=C/2` (atropisomer, axis not shown; (Ra)) [Compound Z103, (1r,2R,3S)-N-((4^2Z,8^3S,2E,6S)-(Ra)-1^5-(5-(3-(4-cyano-4-(hydroxymethyl)piperidin-1-yl)prop-1-yn-1-yl)-2-((S)-1-methoxyethyl)pyridin-3-yl)-1^1-ethyl-12,12-dimethyl-7,9-dioxo-8^1,8^2,8^3,8^4,8^5,8^6-hexahydro-1^1H-10-oxa-4(4,2)-thiazola-8(1,3)-pyridazina-1(3,4)-pyrrolacyclotridecaphan-2-en-6-yl)-2,3-dimethylcyclopropane-1-carboxamide], in that order: 320 pM, 50 pM, 110 pM and 80 pM.
As to `CCn1cc2c(c1-c1cc(C#CCN3CCS(=O)(=O)CC3)cnc1[C@H](C)OC)CC(C)(C)COC(=O)[C@@H]1CCCN(N1)C(=O)[C@@H](NC(=O)[C@H]1[C@@H]3COC[C@@H]31)Cc1nc(cs1)/C=C/2` (atropisomer, axis not shown; (Ra)) [Compound Z130, (1R,5S,6r)-N-((4^2Z,8^3S,2E,6S)-(Ra)-1^5-(5-(3-(1,1-dioxidothiomorpholino)prop-1-yn-1-yl)-2-((S)-1-methoxyethyl)pyridin-3-yl)-1^1-ethyl-12,12-dimethyl-7,9-dioxo-8^1,8^2,8^3,8^4,8^5,8^6-hexahydro-1^1H -10-oxa-4(4,2)-thiazola-8(1,3)-pyridazina-1(3,4)-pyrrolacyclotridecaphan-2-en-6-yl)-3-oxabicyclo[3.1.0]hexane-6-carboxamide], the IC50 in the experiment on p-ERK [1] came out at 540 pM; in the experiment on AsPC-1 cells, 360 pM; with NCI-H441 cells, 410 pM; in the experiment with p-ERK [2], 940 pM.
